Values after ≈ are worked out from the molar mass of the structure shown. Active and inactive are the calls of the source. The calls are words filed in the database; no cut-off is given here.
Tests used:
[1] = test system: Staphylococcus aureus; experiment: Antibacterial activity against Staphylococcus aureus ATCC 6538 measured after 24 hrs by susceptibility assay; type: functional
[2] = test system: Staphylococcus epidermidis; experiment: Antibacterial activity against Staphylococcus epidermidis ATCC 12228 measured after 24 hrs by susceptibility assay; type: functional
[3] = test system: Staphylococcus aureus; experiment: Antibacterial activity against methicillin-resistant Staphylococcus aureus measured after 24 hrs by susceptibility assay; type: functional
[4] = test system: Staphylococcus aureus; experiment: Antibacterial activity against Staphylococcus aureus ATCC 29213 measured after 24 hrs by susceptibility assay; type: functional
[5] = test system: Staphylococcus aureus; experiment: Bactericidal activity against Staphylococcus aureus ATCC 6538 measured after 24 hrs; type: functional
[6] = test system: Staphylococcus aureus; experiment: Bactericidal activity against Staphylococcus aureus ATCC 29213 measured after 24 hrs; type: functional
[7] = test system: Staphylococcus epidermidis; experiment: Bactericidal activity against Staphylococcus epidermidis ATCC 12228 measured after 24 hrs; type: functional
[8] = test system: Staphylococcus aureus; experiment: Bactericidal activity against methicillin-resistant Staphylococcus aureus measured after 24 hrs; type: functional
[9] = test system: Staphylococcus aureus; experiment: Antibacterial activity against Staphylococcus aureus ATCC 6538 assessed as inhibition of bacterial growth at 1 times MIC measured every 2 hrs for 24 hrs by time kill assay; type: functional, organism-based
[10] = test system: Staphylococcus aureus; experiment: Antibacterial activity against methicillin-resistant Staphylococcus aureus assessed as inhibition of bacterial growth at 1 times MIC measured every 2 hrs for 24 hrs by time kill assay; type: functional, organism-based
[11] = test system: Staphylococcus aureus; experiment: Antibacterial activity against Staphylococcus aureus ATCC 6538 assessed as delay in bacterial growth at 0.5 times MIC measured every 2 hrs for 24 hrs by time kill assay; type: functional, organism-based
[12] = test system: Staphylococcus epidermidis; experiment: Antibacterial activity against Staphylococcus epidermidis ATCC 12228 assessed as delay in bacterial growth at 0.5 times MIC measured every 2 hrs for 24 hrs by time kill assay; type: functional, organism-based
[13] = test system: Staphylococcus aureus; experiment: Antibacterial activity against methicillin-resistant Staphylococcus aureus assessed as delay in bacterial growth at 0.5 times MIC measured every 2 hrs for 24 hrs by time kill assay; type: functional, organism-based
[14] = test system: Staphylococcus aureus; experiment: Antibacterial activity against Staphylococcus aureus ATCC 6538 assessed as inhibition of bacterial growth at 2 to 4 times MIC measured every 2 hrs for 24 hrs by time kill assay relative to control; type: functional
[15] = test system: Staphylococcus epidermidis; experiment: Antibacterial activity against Staphylococcus epidermidis ATCC 12228 assessed as inhibition of bacterial growth at 2 to 4 times MIC measured every 2 hrs for 24 hrs by time kill assay relative to control; type: functional
[16] = test system: Staphylococcus aureus; experiment: Antibacterial activity against methicillin-resistant Staphylococcus aureus assessed as inhibition of bacterial growth at 2 to 4 times MIC measured every 2 hrs for 24 hrs by time kill assay relative to control; type: functional
[17] = Hemolytic activity in rabbit red blood cells assessed as hemolytic rate at 128 times MIC measured after 1 hr by absorbance based method relative to control; type: toxicity, cell-based, Oryctolagus cuniculus, Erythrocyte; details: rabbit red blood cells (erythrocytes), read-out: Activity
[18] = test system: Staphylococcus aureus; experiment: Antibiofilm activity in methicillin-resistant Staphylococcus aureus assessed as inhibition of biofilm formation at 16 times MIC measured after 24 hrs by crystal violet staining based analysis relative to control; type: functional
[19] = test system: Staphylococcus aureus; experiment: Antibiofilm activity in methicillin-resistant Staphylococcus aureus assessed as eradication of formed biofilm by measuring reduction in biofilm mass at 1 times MIC measured after 24 hrs by crystal violet staining based analysis relative to control; type: functional; set-up: scale not given: the % may be the effect or the level left
[20] = test system: Staphylococcus aureus; experiment: Antibacterial activity against methicillin-resistant Staphylococcus aureus assessed as reduction in metabolic activity at 1 to 8 times MIC measured after 24 hrs by alamar blue assay; type: functional, organism-based
[21] = test system: Staphylococcus aureus; experiment: Induction of morphological changes in methicillin-resistant Staphylococcus aureus assessed as disruption of cell membrane integrity at 8 times MIC incubated for 8 hrs by SEM analysis; type: functional, organism-based
[22] = test system: Cell membrane; experiment: Disruption of cell membrane integrity in methicillin-resistant Staphylococcus aureus assessed as rupture of cell membrane at 8 times MIC incubated for 8 hrs by TEM analysis; type: cell membranes
[23] = test system: Cell membrane; experiment: Induction of cell membrane damage in methicillin-resistant Staphylococcus aureus assessed as increase in red fluorescence in PI channel at 8 times MIC incubated for 4 hrs by Calcein-AM/PI staining based confocal microscopic analysis; type: cell membranes
[24] = test system: Cell membrane; experiment: Induction of membrane depolarization in methicillin-resistant Staphylococcus aureus assessed as increase in fluorescence intensity at 1 to 8 times MIC measured after 30 mins by DiSC3(5) dye based spectrofluorometer; type: cell membranes
[25] = test system: Cell membrane; experiment: Induction of cell membrane in methicillin-resistant Staphylococcus aureus assessed as increase in fluorescence intensity by measuring number of PI-permeable cells at 2 times MIC measured after 2 hrs by PI staining based flow cytometry analysis (reference value: 5.71); type: cell membranes
[26] = test system: Cell membrane; experiment: Induction of cell membrane in methicillin-resistant Staphylococcus aureus assessed as increase in fluorescence intensity by measuring number of PI-permeable cells at 4 times MIC measured after 2 hrs by PI staining based flow cytometry analysis (reference value: 5.71); type: cell membranes
[27] = test system: Cell membrane; experiment: Induction of cell membrane in methicillin-resistant Staphylococcus aureus assessed as increase in fluorescence intensity by measuring number of PI-permeable cells at 8 times MIC measured after 2 hrs by PI staining based flow cytometry analysis (reference value: 5.71); type: cell membranes
[28] = test system: HEK-293T; experiment: Cytotoxicity against HEK293T cells assessed as reduction in cell viability upto 64 times MIC incubated for 24 hrs by CCK-8 assay; type: toxicity, cell-based; details: human
[29] = test system: Staphylococcus aureus; experiment: Antibacterial activity against methicillin-resistant Staphylococcus aureus infected in female C57BL/6 mouse wound model assessed as log reduction in viable bacterial count at 10 mg/kg administered twice on wounds with 6 hrs interval and measured for 7 days; type: functional; details: time 7 day
[30] = test system: Staphylococcus aureus; experiment: Antibacterial activity against methicillin-resistant Staphylococcus aureus infected in female C57BL/6 mouse wound model assessed as log reduction in viable bacterial count at 30 mg/kg administered twice on wounds with 6 hrs interval and measured for 7 days; type: functional; details: time 7 day
[31] = Toxicity in female C57BL/6 mouse assessed as erythema in skin at 10 to 30 mg/kg administered daily for 3 days; type: organism-based; details: in vivo, 72 h, dose 10-30 mg/kg, time 3 day
[32] = Toxicity in female C57BL/6 mouse assessed as changes in skin tissue at 10 to 30 mg/kg administered daily for 3 days and measured on day 4 by H and E staining based microscopic analysis; type: organism-based; details: in vivo, 96 h, dose 10-30 mg/kg, time 4 day
[33] = test system: Staphylococcus aureus; experiment: Induction of intracellular ROS accumulation in methicillin-resistant Staphylococcus aureus assessed as number of fluorescence cells at 1 times MIC incubated for 6 hrs by DCFH-DA staining based flow cytometry analysis (reference value: 3.88)
[34] = test system: Staphylococcus aureus; experiment: Induction of intracellular ROS accumulation in methicillin-resistant Staphylococcus aureus assessed as number of fluorescence cells at 2 times MIC incubated for 6 hrs by DCFH-DA staining based flow cytometry analysis (reference value: 3.88)
[35] = test system: Staphylococcus aureus; experiment: Induction of intracellular ROS accumulation in methicillin-resistant Staphylococcus aureus assessed as number of fluorescence cells at 4 times MIC incubated for 6 hrs by DCFH-DA staining based flow cytometry analysis (reference value: 3.88)
[36] = test system: Staphylococcus aureus; experiment: Induction of intracellular ROS accumulation in methicillin-resistant Staphylococcus aureus assessed as number of fluorescence cells at 8 times MIC incubated for 6 hrs by DCFH-DA staining based flow cytometry analysis (reference value: 3.88)

CC1(C)CC[C@]2(C(=O)NS(=O)(=O)c3ccc(Cl)cc3)CC[C@]3(C)C(=CC[C@@H]4[C@@]5(C)Cc6c([nH]c7c(C(=O)O)cccc67)C(C)(C)[C@@H]5CC[C@]43C)[C@@H]2C1
MIC [1]: 1 µM (≈ 0.745 µg/mL) | MIC [2]: 2 µM (≈ 1.49 µg/mL) | MIC [3]: 1 µM (≈ 0.745 µg/mL) | MIC [4]: 2 µM (≈ 1.49 µg/mL) | MBC [5]: 2 µM (≈ 1.49 µg/mL) | MBC [6]: 2 µM (≈ 1.49 µg/mL) | MBC [7]: 2 µM (≈ 1.49 µg/mL) | MBC [8]: 4 µM (≈ 2.98 µg/mL) | Activity [9]: Active | Activity [10]: Active | Activity [11]: Active | Activity [12]: Active | Activity [13]: Active | inhibition (INH) [14]: 100% | inhibition (INH) [15]: 100% | inhibition (INH) [16]: 100% | hemolysis at 1 h, 128 times MIC [17]: < 5% | inhibition (INH) [18]: 81% | Activity [19]: 52% | Activity [20]: Dose-Dependent Effect | Activity [21]: Active | Activity [22]: Active | Activity [23]: Active | Activity [24]: Dose-Dependent Effect | Activity [25]: 11.6 | Activity [26]: 13.5 | Activity [27]: 46.5 | Activity [28]: Non-Toxic | log(activity) [29]: ~1.6 | log(activity) [30]: 2.5 | Activity [31]: Non-Toxic | Activity [32]: Non-Toxic | Activity [33]: 1.96 | Activity [34]: 1.57 | Activity [35]: 1.91 | Activity [36]: 1.99

Reference: ChEMBL document CHEMBL5608189, “Design and synthesis of unique indole-benzosulfonamide oleanolic acid derivatives as potent antibacterial agents against MRSA” (Eur J Med Chem, 2024)
